Data reported in article PMC4613240, “A Series of New Ligustrazine-Triterpenes Derivatives as Anti-Tumor Agents: Design, Synthesis, and Biological Evaluation” (International Journal of Molecular Sciences, 2015).

Assays:
[1] = tested on: Bel-7402 (human hepatocellular carcinoma); assay: MTT cytotoxicity assay, Bel-7402; type: cell-based; details: maximal tested concentration 20.0 μM
Procedure: (§1) The cytotoxicity of ligustrazine-triterpenes derivatives was evaluated on five tumor cell lines (Bel-7402, HepG2, HT-29, Hela, and MCF-7) using the standard MTT assay. In the study, the antineoplastic drug cisplatin (DDP) was selected as the positive control. The MDCK cell line was used to test the toxicity of the ligustrazine-triterpenes derivatives and DDP.
(§2) The cell lines Bel-7402 (human hepatocellular carcinoma), HepG2 (human hepatocellular carcinoma), HT-29 (human colon carcinoma), Hela (human cervical cancer), MCF-7 (human breast cancer) were included in this study. All these cell lines were provided by the Chinese Academy of Medical Sciences & Peking Union Medical College. Cultures were maintained as monolayers in RPMI 1640 supplemented with 10% (v/v) heat inactivated fetal bovine serum and 1% (v/v) enicillin/streptomycin (Thermo Technologies, New York, NY, USA) at 37 °C in a humidified atmosphere with 5% CO2. The ligustrazine derivatives under study were dissolved in DMSO (Sigma, St. Louis, MO, USA) and added at required concentrations to the cell culture. Cells incubated without the preparations served as the control.
(§3) The cytotoxicity of the compounds was evaluated on five cancer cell lines (Bel-7402, HepG2, HT-29, Hela, MCF-7) by the standard MTT assay. In short, exponentially growing cells were seeded into 96-well plates at a density 10^4 cells/mL. The plates were incubated at 37 °C in a humidified 5% CO2 atmosphere. Cells were allowed to adhere to the surface for 24 h and then treated with serial dilutions of the compounds for 72 h. Later, aliquots of [3-(4,5-dimethylthiazol-2-yl)-2,5-diphenyltetrazolium bromide] (MTT) solution (20 μL, 5 mg/mL) were added to each well and the incubation was continued for an additional 4 h. Then the supernatant medium was thrown away. The dark blue formazan crystals formed within the healthy cells were solubilized with DMSO (150 μL) and the absorbance was measured in a plate reader (BIORAD 550 spectrophotometer, Bio-rad Life Science Development Ltd., Beijing, China) at 490 nm. Wells containing no drugs were used as control group. The IC50 values were defined as the concentration of compounds that produced a 50% reduction of surviving cells and calculated using Logit-method. Tumor cell growth inhibitory rate was calculated in the following Equation (1): % inhibition = (1 − Sample group OD/Control group OD) × 100% (1)

[2] = tested on: HT-29 (human colon carcinoma); assay: MTT cytotoxicity assay, HT-29; type: cell-based; details: maximal tested concentration 20.0 μM
Procedure: as §1, §2, §3

[3] = tested on: Madin-Darby canine kidney cell line (MDCK); assay: MTT cytotoxicity (nephrotoxicity/selectivity) assay, MDCK; type: cell-based; details: maximal tested concentration 20.0 μM, toxicity to MDCK kidney cells
[4] = tested on: MCF-7 (human breast cancer); assay: MTT cytotoxicity assay, MCF-7; type: cell-based; details: maximal tested concentration 20.0 μM
Procedure: as §1, §2, §3

[5] = tested on: HepG2 (human hepatocellular carcinoma); assay: MTT cytotoxicity assay, HepG2; type: cell-based; details: 72 h, maximal tested concentration 20.0 μM
Procedure: as §1, §2, §3

[6] = tested on: Hela (human cervical cancer); assay: MTT cytotoxicity assay, Hela; type: cell-based; details: 72 h, maximal tested concentration 20.0 μM
Procedure: as §1, §2, §3

Row | Structure (SMILES) | IC50 ([1]; 72 h) [µM] | IC50 ([2]; 72 h) [µM] | IC50 [3] [µM] | IC50 ([4]; 72 h) [µM] | IC50 [5] [µM] | IC50 [6] [µM] | IC50 ([1]; Homo sapiens, Bel-7402, 72 h) [µM] | IC50 ([2]; Homo sapiens, HT-29, 72 h) [µM] | IC50 ([4]; Homo sapiens, MCF7, 72 h) [µM] | IC50 ([5]; Homo sapiens, HepG2, 72 h) [µM] | melting point [°C] | IC50 ([6]; Homo sapiens, HeLa) [µM] | IC50 ([3]; Canis lupus familiaris) [µM]
1 | N.N.[Cl][Pt][Cl] [DDP, cisplatin, reference compound] | 5.91 | 5.28 | 14.6 | 5.17 | 4.57 | 6.22 | – | – | – | – | – | – | –
2 | Cc1nc(C)c(C(=O)OC2CCC3(C)C(CCC4(C)C3CC=C3C5CC(C)(C)CCC5(C(=O)OCc5ccccc5)CCC34C)C2(C)C)nc1C (stereo not drawn) [Compound 1c, 3β-Hydroxyolea-(3,5,6-trimethylpyrazin-2-carbonyl)-12-en-28-oic acid-benzyl ester] | – | – | – | – | – | – | > 20 | > 20 | > 20 | > 20 | 194.2 to 194.9 | > 20 | –
3 | C=C(C)[C@@H]1CC[C@]2(C(=O)OCc3nc(C)c(C)nc3C)CC[C@]3(C)C(CCC4[C@@]5(C)CC[C@H](OC(=O)c6nc(C)c(C)nc6C)C(C)(C)C5CC[C@]43C)C12 (stereo partly drawn) [Compound 4b, 3β-Hydroxy-(3,5,6-trimethylpyrazin-2-carbonyl)-lup-20(29)-ene-28-oic acid-3,5,6-trimethylpyrazin-2-methyl ester] | – | – | – | – | – | – | > 20 | > 20 | 12.9 | 13.2 | 142.1 to 142.9 | > 20 | > 20
4 | Cc1nc(C)c(COC(=O)[C@]23CCC(C)(C)CC2C2=CCC4[C@@]5(C)CC[C@H](OC(=O)c6nc(C)c(C)nc6C)C(C)(C)C5CC[C@@]4(C)[C@]2(C)CC3)nc1C (stereo partly drawn) [Compound 1b, 3β-Hydroxyolea-(3,5,6-trimethylpyrazin-2-carbonyl)-12-en-28-oic acid-3,5,6-trimethylpyrazin-2-methyl ester] | – | – | – | – | – | – | > 20 | > 20 | 10.6 | 12.1 | 193 to 193.7 | > 20 | > 20
5 | CC1(C)[C@@H](O)CC[C@]2(C)[C@H]3C(=O)C=C4[C@@H]5C[C@@](C)(C(=O)O)CC[C@]5(C)CC[C@@]4(C)[C@]3(C)CC[C@@H]12 [GA, glycyrrhetic acid, reference compound] | > 20 | > 20 | – | > 20 | > 20 | > 20 | – | – | – | – | – | – | –
6 | Cc1nc(C)c(C(=O)OC2CCC3(C)C(CCC4(C)C3CC=C3C5CC(C)(C)CCC5(C(=O)O)CCC34C)C2(C)C)nc1C (stereo not drawn) [Compound 1d, 3β-Hydroxyolea-(3,5,6-trimethylpyrazin-2-carbonyl)-12-en-28-oic acid] | – | – | – | – | – | – | 9.28 | 8.43 | 5.69 | 7.94 | 289.7 to 290.5 | 4.37 | 16.4
7 | CC1(C)CC[C@]2(C(=O)O)CC[C@]3(C)C(=CC[C@@H]4[C@@]5(C)CC[C@H](O)C(C)(C)[C@@H]5CC[C@]43C)[C@@H]2C1 [OA, oleanolic acid, reference compound] | – | – | – | – | – | – | > 20 | > 20 | > 20 | > 20 | – | > 20 | –
8 | C=C(C)C1CCC2(C(=O)O)CCC3(C)C(CCC4C5(C)CCC(OC(=O)c6nc(C)c(C)nc6C)C(C)(C)C5CCC43C)C12 (stereo not drawn) [Compound 4d, 3β-Hydroxy-(3,5,6-trimethylpyrazin-2-carbonyl)-lup-20(29)-ene-28-oic acid] | – | – | – | – | – | – | 13.3 | 8.38 | 6.22 | 7.42 | 279.5 to 280.3 | 12.2 | > 20
9 | Cc1nc(C)c(COC(=O)[C@]23CCC(C)(C)CC2C2=CCC4[C@@]5(C)CC[C@H](O)C(C)(C)C5CC[C@@]4(C)[C@]2(C)CC3)nc1C (stereo partly drawn) [Compound 1a, 3β-Hydroxyolea-12-en-28-oic acid-3,5,6-trimethylpyrazin-2-methyl ester] | – | – | – | – | – | – | 10.2 | 13.2 | 15.2 | 14.8 | – | 14.1 | > 20
